One assay deals with GREB1 and PR. The experiment in a line: expression of ER-target genes (GREB1 and PR). In kind it is cell-based. Conditions: MCF7 and T47D.
The next assay concerns the target T1, rat uterine ER (Rattus norvegicus, UniProt P06211).
T1 construct: from tissue; host or cells: uterus of immature rats
T1 sequence (P06211 1-600): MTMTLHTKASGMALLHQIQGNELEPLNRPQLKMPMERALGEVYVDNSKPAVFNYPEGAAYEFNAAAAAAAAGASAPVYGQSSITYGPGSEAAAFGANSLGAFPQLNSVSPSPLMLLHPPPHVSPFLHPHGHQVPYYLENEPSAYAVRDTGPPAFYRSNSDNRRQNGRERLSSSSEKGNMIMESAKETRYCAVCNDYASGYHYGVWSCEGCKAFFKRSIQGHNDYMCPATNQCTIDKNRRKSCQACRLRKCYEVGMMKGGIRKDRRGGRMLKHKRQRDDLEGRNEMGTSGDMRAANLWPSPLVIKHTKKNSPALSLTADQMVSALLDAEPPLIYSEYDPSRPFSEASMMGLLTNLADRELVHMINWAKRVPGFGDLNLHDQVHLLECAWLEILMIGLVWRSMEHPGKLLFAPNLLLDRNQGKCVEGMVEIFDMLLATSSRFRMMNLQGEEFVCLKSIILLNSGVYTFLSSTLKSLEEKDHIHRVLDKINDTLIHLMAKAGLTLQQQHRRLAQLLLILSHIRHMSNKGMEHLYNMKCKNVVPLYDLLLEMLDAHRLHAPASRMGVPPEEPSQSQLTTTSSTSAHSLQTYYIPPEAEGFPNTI
The experiment in a line: immature rat uterotrophic model. In kind it is in vivo. Conditions: 30 mg/kg once a day, oral.

For `O=C1CC[C@H](N2Cc3cc(N4CCN(CC5CCN(c6ccc([C@@H]7c8ccc(O)cc8CC[C@@H]7c7ccccc7)cc6)CC5)CC4)ccc3C2=O)C(=O)N1` [Compound (I-c), (3S)-3-[5-[4-[[1-[4-[(1R, 2S)-6-hydroxy-2-phenyl-tetralin-1-yl]phenyl]-4-piperidyl]methyl]piperazin-1-yl]-1-oxo-isoindolin-2-yl]piperidine-2,6-dione], in the assay on GREB1 and PR, the “expression of classically-regulated ER-target genes” value is “decreases the expression”. In addition, the “degradation of rat uterine ER” value at rat uterine ER is on record as “degrades rat uterine ER”.

Values taken from patent publication US12208095B2, “Methods of treating breast cancer with tetrahydronaphthalene derivatives as estrogen receptor degraders” (Arvinas Operations, Inc., priority 2019, dated 2025).
